Where only a bound is given, the exact number is not on record here.

SHP2, sequence (Q06124 whole entry): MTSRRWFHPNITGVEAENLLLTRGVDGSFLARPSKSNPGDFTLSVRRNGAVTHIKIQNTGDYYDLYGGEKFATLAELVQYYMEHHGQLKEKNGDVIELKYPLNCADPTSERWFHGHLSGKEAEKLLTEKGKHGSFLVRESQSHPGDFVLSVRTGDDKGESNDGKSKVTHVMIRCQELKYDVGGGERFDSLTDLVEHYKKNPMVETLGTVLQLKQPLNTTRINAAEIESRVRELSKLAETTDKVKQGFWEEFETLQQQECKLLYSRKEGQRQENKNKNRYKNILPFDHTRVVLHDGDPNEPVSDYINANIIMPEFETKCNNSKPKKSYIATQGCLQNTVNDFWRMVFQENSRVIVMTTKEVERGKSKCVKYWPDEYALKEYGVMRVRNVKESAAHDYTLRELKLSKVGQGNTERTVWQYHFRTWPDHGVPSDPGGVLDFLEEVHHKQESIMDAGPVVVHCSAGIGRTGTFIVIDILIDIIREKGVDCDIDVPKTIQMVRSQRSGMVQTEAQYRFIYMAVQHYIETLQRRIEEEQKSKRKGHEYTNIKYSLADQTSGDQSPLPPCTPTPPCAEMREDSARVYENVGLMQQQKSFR

One test concerns the target SHP2 (Homo sapiens (Human), UniProt Q06124). The test can be described thus: SHP2 allosteric inhibition assay (DiFMUP prompt fluorescence). It counts as biochemical.
Settings: not given
The IC50 is the concentration that gives 50% inhibition. Lower therefore signals greater potency in that assay. Compound `Cc1ccc(C(=O)CSc2cnc(N3CCC4(CC3)Cc3ccccc3[C@H]4N)cn2)cc1` [Example 267, (S)-2-((5-(1-amino-1,3-dihydrospiro[indene-2,4′-piperidin]-1′-yl)pyrazin-2-yl)thio)-1-(p-tolyl)ethan-1-one] showed an IC50 of less than 50 nM.

Staying with this test, now noted: 0.25 nM SHP2 activated with 0.5 μM peptide IRS1_pY1172(dPEG8)pY1222; substrate DiFMUP.
For `N[C@@H]1c2ccccc2O[C@]12C[C@H]1CC[C@@H](C2)N1c1cnc(SCC2CC2)cn1` [Example 274, (1′R,2r,3R,5'S)-8′-(5-((cyclopropylmethyl)thio)pyrazin-2-yl)-3H-8′-azaspiro[benzofuran-2,3′-bicyclo[3.2.1]octan]-3-amine], the IC50 was 1000 to 10000 nM.

`Cc1nc2c(N3CCCCC3)n[nH]c2nc1N1CCC2(CC1)Cc1ccccc1[C@H]2N` [Example 152, (3S)-1′-[5-methyl-3-(piperidin-1-yl)-1H-pyrazolo[3,4-b]pyrazin-6-yl]-1,3-dihydrospiro[indene-2,4′-piperidin]-3-amine] came in with an IC50 not above 50 nM. Same read-out and setting: for `Cn1c(N2CCC3(CC2)Cc2ccccc2[C@H]3N)ccc(N2CCCc3ccccc32)c1=O` [Example 206] the value was not above 50 nM.

In the case of `N[C@H]1c2ccccc2C[C@]12CC[C@@H](c1cnc(Sc3ccnc(Cl)c3Cl)cn1)CC2` (single isomer, unassigned) [Example 277, (1r, 4r)-4-(5-((2,3-dichloropyridin-4-yl)thio)pyrazin-2-yl)-1′,3′-dihydrospiro[cyclohexane-1,2′-inden]-1′-amine], the IC50 was in the range of 50 to 1000 nM. With `N[C@@H]1c2ccccc2OC12CCN(c1cnc(Oc3ccnc(Cl)c3Cl)cn1)CC2` [Example 64], the IC50 is not above 50 nM.

The compound `CO[C@H]1C[C@@H](N2CCN(c3n[nH]c4nc(N5CCC6(CC5)Cc5ccccc5C6N)cnc34)c3ccc(C#N)cc32)C1` (stereo partly drawn) [Example 32] had an IC50 not above 50 nM. Still for that read-out and setting: with `Nc1nccc(Nc2n[nH]c3nc(N4CCC5(CC4)Cc4ccccc4[C@H]5N)cnc23)c1Cl` [Example 138, (S)—N4-(6-(1-amino-1,3-dihydrospiro[indene-2,4′-piperidin]-1′-yl)-1H-pyrazolo[3,4-b]pyrazin-3-yl)-3-chloropyridine-2,4-diamine] the figure was not above 50 nM. The same measure, in the same setting: with `N#Cc1ccc2c(c1)N([C@H]1C[C@H](O)C1)CCN2c1n[nH]c2nc(N3CCC4(CC3)Cc3ccccc3C4N)cnc12` (stereo partly drawn) [Example 35] the figure was not above 50 nM. Still for that read-out and setting: for `N[C@@H]1c2ccccc2OC12CCN(c1cnc(Sc3cccnc3Cl)cn1)CC2` [Example 96] the value was not above 50 nM; for `N[C@@H]1c2ccccc2CC12CCN(c1cnc(SC3CCCC3)cn1)CC2` [Example 168, (3S)-1′-[5-(cyclopentylsulfanyl)pyrazin-2-yl]-1,3-dihydrospiro[indene-2,4′-piperidin]-3-amine], not above 50 nM. The compound `N[C@@H]1c2cccc(F)c2OC12CCN(c1cnc(Sc3ccnc(Cl)c3Cl)cn1)CC2` [Example 82, (3R)-1′-{5-[(2,3-dichloropyridin-4-yl)sulfanyl]pyrazin-2-yl}-7-fluoro-3H-spiro[1-benzofuran-2,4′-piperidin]-3-amine] registered an IC50 not above 50 nM.

In turn, `CC(=O)N1CCN(c2n[nH]c3nc(N4CCC5(CC4)Cc4ccccc4[C@H]5N)c(CO)nc23)c2ccccc21` [Example 102] gave an IC50 not above 50 nM. Still for that read-out and setting: for `Nc1nccc(Sc2ccc(N3CCC4(CC3)Oc3ccccc3[C@H]4N)cn2)c1Cl` [Example 216] the value was 50 to 1000 nM. On the same count and under the same terms, for `N[C@@H]1c2ccccc2C[C@]12CC[C@H](c1ccc(Sc3ccnc(Cl)c3Cl)nc1)CC2` [Example 279, (1s,3'S,4R)-4-{6-[(2,3-dichloropyridin-4-yl)sulfanyl]pyridin-3-yl}-1′,3′-dihydrospiro[cyclohexane-1,2′-inden]-3′-amine] the value was not above 50 nM; for `N[C@H]1c2ccccc2CC12CCN(c1cnc3c(-c4ccncc4F)n[nH]c3n1)CC2` [Example 75], not above 50 nM. On the same count and under the same terms, for `Cc1nc2c(N3CCC(F)(F)CC3)n[nH]c2nc1N1CCC2(CC1)Cc1ccccc1[C@H]2N` [Example 186, (3S)-1′-[3-(4,4-difluoropiperidin-1-yl)-5-methyl-1H-pyrazolo[3,4-b]pyrazin-6-yl]-1,3-dihydrospiro[indene-2,4′-piperidin]-3-amine] the value was not above 50 nM; for `C[C@@H](O)c1nc2c(N3CCCc4ncccc43)n[nH]c2nc1N1CCC2(CC1)Cc1ccccc1[C@H]2N` (single isomer, unassigned) [Example 141], not above 50 nM. For `Nc1nccc(Sc2n[nH]c3nc(N4CCC5(CC4)Cc4ccccc4[C@H]5N)cnc23)c1Cl` [Example 86, (S)-1′-(3-((2-amino-3-chloropyridin-4-yl)thio)-1H-pyrazolo[3,4-b]pyrazin-6-yl)-1,3-dihydrospiro[indene-2,4′-piperidin]-1-amine], the IC50 was not above 50 nM. Still for that read-out and setting: for `Cc1nc2c(C3=CCOCC3)n[nH]c2nc1N1CCC2(CC1)Cc1ccccc1[C@H]2N` [Example 167, (3S)-1′-[3-(3,6-dihydro-2H-pyran-4-yl)-5-methyl-1H-pyrazolo[3,4-b]pyrazin-6-yl]-1,3-dihydrospiro[indene-2,4′-piperidin]-3-amine] the value was not above 50 nM; for `N[C@@H]1c2ccccc2CC12CCN(c1cnc3c(-c4ccnc(Cl)c4F)n[nH]c3n1)CC2` [Example 67, (3S)-1′-[3-(2-chloro-3-fluoropyridin-4-yl)-1H-pyrazolo[3,4-b]pyrazin-6-yl]-1,3-dihydrospiro[indene-2,4′-piperidin]-3-amine], not above 50 nM.

The compound `N[C@@H]1c2ccccc2CC12CCN(c1nc3[nH]nc(N4CCCCC4)c3nc1C1CC1)CC2` [Example 255, (3S)-1′-[5-cyclopropyl-3-(piperidin-1-yl)-1H-pyrazolo[3,4-b]pyrazin-6-yl]-1,3-dihydrospiro[indene-2,4′-piperidin]-3-amine] yielded an IC50 not above 50 nM.

In turn, `N[C@@H]1c2ccccc2OC12CCN(c1cnc3c(N4CCCc5nc(-c6ncco6)ccc54)n[nH]c3n1)CC2` [Example 61] yielded an IC50 not above 50 nM. Same read-out and setting: for `N[C@H]1c2cccc(F)c2CC12CCN(c1cnc3cn[nH]c3n1)CC2` [Example 24] the value was not above 50 nM.

The compound `Nc1cnc(CO)c(N2CCC3(CC2)Cc2ccccc2[C@H]3N)n1` [Example 123, {5-amino-3-[(3S)-3-amino-1,3-dihydrospiro[indene-2,4′-piperidin]-1′-yl]pyrazin-2-yl}methanol] yielded a half-maximal inhibitory concentration (IC50) not above 50 nM.

Turning to `CN(C)C(=O)c1ccc2c(c1)[C@H](N)C1(CCN(c3cnc4c(N5CCCc6ncccc65)n[nH]c4n3)CC1)C2` [Example 28], the IC50 is not above 50 nM. Same read-out and setting: with `CS(=O)(=O)c1cccc2c1CCCN2c1n[nH]c2nc(N3CCC4(CC3)Cc3cccc(F)c3[C@H]4N)cnc12` [Example 59] the figure was not above 50 nM; with `N[C@@H]1c2ccccc2CC12CCN(c1cnc(N3CCCC3c3ccccc3)cn1)CC2` (stereo in doubt) [Example 164, (3S)-1′-{5-[(2S)-2-phenylpyrrolidin-1-yl]pyrazin-2-yl}-1,3-dihydrospiro[indene-2,4′-piperidin]-3-amine], not above 50 nM; with `N#CCc1n[nH]c2nc(N3CCC4(CC3)Cc3ccccc3[C@H]4N)c(CO)nc12` [Example 153, 2-{6-[(3S)-3-amino-1,3-dihydrospiro[indene-2,4′-piperidin]-1′-yl]-5-(hydroxymethyl)-1H-pyrazolo[3,4-b]pyrazin-3-yl}acetonitrile], not above 50 nM. Still for that read-out and setting: with `N[C@@H]1c2ccccc2CC12CCN(c1cnc3c(N4CCCc5nc(-c6ccn[nH]6)ccc54)n[nH]c3n1)CC2` [Example 4] the figure was not above 50 nM.

As for `Cc1nc2c(N3CCCc4c3ccn(C)c4=O)n[nH]c2nc1N1CCC2(CC1)Cc1ccc(F)cc1[C@H]2N` [Example 246, 1-{6-[(3S)-3-amino-5-fluoro-1,3-dihydrospiro[indene-2,4′-piperidin]-1′-yl]-5-methyl-1H-pyrazolo[3,4-b]pyrazin-3-yl}-6-methyl-1,2,3,4,5,6-hexahydro-1,6-naphthyridin-5-one], the IC50 was more than 10000 nM. `N[C@@H]1c2ccccc2CC12CCN(c1nccnc1CO)CC2` [Example 120, {3-[(3S)-3-amino-1,3-dihydrospiro[indene-2,4′-piperidin]-1′-yl]pyrazin-2-yl}methanol] registered an IC50 not above 50 nM. On the same count and under the same terms, with `Cn1ncc2c(N3CCC4(CC3)Cc3ccccc3[C@H]4N)ncnc21` [Example 181] the figure was 1000 to 10000 nM; with `N[C@@H]1c2ccccc2CC12CCN(c1ncc(Sc3cccc(Cl)c3Cl)c(=O)[nH]1)CC2` [Example 261, 2-[(3S)-3-amino-1,3-dihydrospiro[indene-2,4′-piperidin]-1′-yl]-5-[(2,3-dichlorophenyl)sulfanyl]-3,4-dihydropyrimidin-4-one], not above 50 nM; with `N#Cc1n[nH]c2nc(N3CCC4(CC3)Cc3ccccc3[C@H]4N)c(CO)nc12` [Example 154, 6-[(3S)-3-amino-1,3-dihydrospiro[indene-2,4′-piperidin]-1′-yl]-5-(hydroxymethyl)-1H-pyrazolo[3,4-b]pyrazine-3-carbonitrile], not above 50 nM. Still for that read-out and setting: with `Cc1nc2c(N3CCCc4ncccc43)n[nH]c2nc1N1CCC2(CC1)Cc1ccccc1[C@H]2N` [Example 124, (S)-1′-(3-(3,4-dihydro-1,5-naphthyridin-1(2H)-yl)-5-methyl-1H-pyrazolo[3,4-b]pyrazin-6-yl)-1,3-dihydrospiro[indene-2,4′-piperidin]-1-amine] the figure was not above 50 nM; with `C[C@@H](C(N)=O)N(C)c1n[nH]c2nc(N3CCC4(CC3)Cc3ccccc3[C@H]4N)cnc12` (racemic) [Example 151, (2S)-2-({6-[(3S)-3-amino-1,3-dihydrospiro[indene-2,4′-piperidin]-1′-yl]-1H-pyrazolo[3,4-b]pyrazin-3-yl}(methyl)amino)propanamide], not above 50 nM; with `N[C@@H]1c2ccccc2C[C@]12CC=C(c1cnc3c(N4CCCc5ncccc54)n[nH]c3n1)CC2` [Example 175, (1S,1'S)-4-(3-(3,4-dihydro-1,5-naphthyridin-1(2H)-yl)-1H-pyrazolo[3,4-b]pyrazin-6-yl)-1′,3′-dihydrospiro[cyclohex[3]ene-1,2′-inden]-1′-amine], 1000 to 10000 nM. Same read-out and setting: for `N[C@@H]1c2ccccc2CC12CCN(c1nc3[nH]ncc3nc1CO)CC2` [Example 104, (S)-(6-(1-amino-1,3-dihydrospiro[indene-2,4′-piperidin]-1′-yl)-1H-pyrazolo[3,4-b]pyrazin-5-yl)methanol] the value was not above 50 nM.

Source of the values: patent US10934302B1, “SHP2 phosphatase inhibitors and methods of use thereof” (Relay Therapeutics, Inc., priority 2018, dated 2021).
